In patent publication US9120805B2, “Substituted pyrrolo[1,2-A]pyrazin-1-ones and pyrazolo[1,5-A]pyrazin-4-ones as inhibitors of tankyrase and poly(ADP-ribose)polymerase activity” (Merck Patent GmbH, priority 2012, dated 2015):

What was measured:
Type in all cases: biochemical
[1] = target: T1, GST-tagged Tnks-2 (873-1166 aa) (Homo sapiens, UniProt Q9H2K2); assay: TNKS2 activity ELISA (autoparsylation assay)
T1 construct: GST-tagged Tnks-2 (873-1166 aa, prepared in-house); made in house
Description: (§1) Description of the TNKS1 and TNKS2 ELISA Assay
(§2) Biochemical Activity Testing of TNKS 1 and 2: Activity ELISA (Autoparsylation Assay)
(§3) For analysis of autoparsylation activity of TNKS 1 and 2 an activity ELISA is performed: In the first step GST tagged TNKS is captured on a Glutathione coated plate. Then the activity assay with biotinylated NAD is performed in the absence/presence of the compounds. During the enzymatic reaction GST tagged TNKS transfers biotinylated ADP-ribose to itself from biotinylated NAD as co-substrate. For the detection streptavidin-HRP conjugate is added that binds to the biotinylated TNKS and is thereby captured to the plates. The amount of biotinylated resp. autoparsylated TNKS is detected with a luminescence substrate for HRP. The level of the luminescence signal correlates directly with the amount of autoparsylated TNKS and therefore with activity of TNKS.
(§4) The activity ELISA is performed in 384 well Glutathione coated microtiter plates (Express capture Glutathione coated plate, Biocat, Heidelberg, Germany). The plates are pre-equilibrated with PBS. Then the plates are incubated with 50 μl 20 ng/well GST-tagged Tnks-1 (1023-1327 aa, prepared in-house), respectively GST-tagged Tnks-2 (873-1166 aa, prepared in-house) in assay buffer (50 mM HEPES, 4 mM Mg-chloride, 0.05% Pluronic F-68, 2 mM DTT, pH 7.7) overnight at 4° C. The plates are washed 3 times with PBS-Tween-20. The wells are blocked by incubation at room temperature for 20 minutes with 50 μl blocking buffer (PBS, 0.05% Tween-20, 0.5% BSA). Afterwards the plates are washed 3 times with PBS-Tween-20. The enzymatic reaction is performed in 50 μl reaction solution (50 mM HEPES, 4 mM Mg-chloride, 0.05% Pluronic F-68, 1.4 mM DTT, 0.5% DMSO, pH 7.7) with 10 μM bio-NAD (Biolog, Life science Inst., Bremen, Germany) as co-substrate in the absence or presence of the test compound (10 dilution concentrations) for 1 hour at 30° C. The reaction is stopped by 3 times washing with PBS-Tween-20. For the detection 50 μl of 20 ng/μl Streptavidin, HRP conjugate (MoBiTec, Göttingen, Germany) in PBS/0.05% Tween-20/0.01% BSA are added and the plates are incubated for 30 minutes at room temperature. After three times washing with PBS-Tween-20 50 μl of SuperSignal ELISA Femto Maximum sensitivity substrate solution (ThermoFisherScientific (Pierce), Bonn, Germany) are added. Following a 1 minute incubation at room temperature luminescence signals are measured with an Envision multimode reader (Perkin Elmer LAS Germany GmbH) at 700 nm. The full value used is the inhibitor-free reaction. The pharmacological zero value used is XAV-939 (Tocris) in a final concentration of 5 μM. The inhibitory values (1050) are determined using either the program Symyx Assay Explorer® or Condosseo® from GeneData.

His-tagged Parp-1 = target: T2, His-tagged Parp-1 (Homo sapiens, UniProt P09874); assay: PARP-1 autoparsylation assay (HTRF); details: PARP-1 autoparsylation HTRF assay
T2 construct: purchased Enzo Life Sciences GmbH
Excerpt: Description of the PARP1 Assay
Biochemical Activity Testing of PARP-1: Autoparsylation Assay
The autoparsylation assay is run in two steps: the enzymatic reaction in which
His-tagged Parp-1 transfers biotinylated ADP-ribose/ADP-ribose to itself from biotinylated NAD/NAD as co-substrate and the detection reaction where a time resolved FRET between cryptate labelled anti-His antibody bound to the His tag of the enzyme and Xlent® labelled-streptavidin bound the biotin-parsylation residue is analysed. The autoparsylation activity is detectable directly via the increase in HTRF signal.
The autoparsylation assay is performed as 384-well HTRF® (Cisbio, Codolet, France) assay format in Greiner low volume nb 384-well microtiter plates. 35 nM His-tagged Parp-1 (human, recombinant, Enzo Life Sciences GmbH, Lörrach, Germany) and a mixture of 125 nM bio-NAD (Biolog, Life science Inst., Bremen, Germany) and 800 nM NAD as co-substrate are incubated in a total volume of 6 μl (100 mM Tris/HCl, 4 mM Mg-chloride, 0.01% IGEPAL® CA630, 1 mM DTT, 0.5% DMSO, pH 8, 13 ng/μl activated DNA (BPS Bioscience, San Diego, US)) in the absence or presence of the test compound (10 dilution concentrations) for 150 min at 23° C. The reaction is stopped by the addition of 4 μl of the Stop/detection solution (70 nM SA-Xlent® (Cisbio, Codolet, France), 2.5 nM Anti-His-K® (Eu-labelled anti-His, Cisbio, Codolet, France) in 50 mM HEPES, 400 mM KF, 0.1% BSA, 20 mM EDTA, pH 7.0). After 1 h incubation at room temperature the HTRF is measured with an Envision multimode reader (Perkin Elmer LAS Germany GmbH) at excitation wavelength 340 nm (laser mode) and emission wavelengths 615 nm and 665 nm. The ratio of the emission signals is determined. The full value used is the inhibitor-free reaction. The pharmacological zero value used is Olaparib (LClabs, Woburn, US) in a final concentration of 1 μM. The inhibitory values (IC50) are determined using either the program Symyx Assay Explorer® or Condosseo® from GeneData.

[2] = target: T3, GST-tagged Tnks-1 (1023-1327 aa) (Homo sapiens, UniProt O95271); assay: TNKS1 activity ELISA (autoparsylation assay)
T3 construct: GST-tagged Tnks-1 (1023-1327 aa, prepared in-house); made in house
Description: as §1, §2, §3, §4

T2 sequence (P09874 whole entry): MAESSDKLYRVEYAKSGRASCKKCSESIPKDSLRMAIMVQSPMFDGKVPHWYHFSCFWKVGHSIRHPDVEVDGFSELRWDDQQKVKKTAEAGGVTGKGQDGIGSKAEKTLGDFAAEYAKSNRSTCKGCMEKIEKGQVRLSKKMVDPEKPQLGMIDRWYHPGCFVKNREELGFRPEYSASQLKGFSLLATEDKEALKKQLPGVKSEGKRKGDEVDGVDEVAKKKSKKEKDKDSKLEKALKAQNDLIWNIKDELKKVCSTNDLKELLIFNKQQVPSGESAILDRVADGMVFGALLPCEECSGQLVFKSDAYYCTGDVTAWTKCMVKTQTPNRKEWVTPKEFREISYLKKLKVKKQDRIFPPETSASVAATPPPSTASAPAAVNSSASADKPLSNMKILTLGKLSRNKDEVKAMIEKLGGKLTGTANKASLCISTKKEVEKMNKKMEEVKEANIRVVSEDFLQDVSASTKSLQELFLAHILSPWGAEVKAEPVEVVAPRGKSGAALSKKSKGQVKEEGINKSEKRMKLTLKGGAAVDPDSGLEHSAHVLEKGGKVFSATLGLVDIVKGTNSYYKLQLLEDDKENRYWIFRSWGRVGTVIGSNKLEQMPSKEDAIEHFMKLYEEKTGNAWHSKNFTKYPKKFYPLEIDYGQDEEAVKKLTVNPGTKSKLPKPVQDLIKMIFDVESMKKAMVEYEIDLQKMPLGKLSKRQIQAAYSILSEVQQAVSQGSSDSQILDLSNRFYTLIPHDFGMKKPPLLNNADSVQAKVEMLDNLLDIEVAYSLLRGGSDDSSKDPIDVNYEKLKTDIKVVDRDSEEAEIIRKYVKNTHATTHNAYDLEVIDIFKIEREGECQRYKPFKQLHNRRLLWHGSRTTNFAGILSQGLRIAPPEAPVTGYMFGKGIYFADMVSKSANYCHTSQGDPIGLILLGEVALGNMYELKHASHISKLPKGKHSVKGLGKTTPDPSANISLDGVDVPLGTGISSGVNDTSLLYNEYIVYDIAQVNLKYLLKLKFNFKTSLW
T3 sequence (O95271 1023-1327): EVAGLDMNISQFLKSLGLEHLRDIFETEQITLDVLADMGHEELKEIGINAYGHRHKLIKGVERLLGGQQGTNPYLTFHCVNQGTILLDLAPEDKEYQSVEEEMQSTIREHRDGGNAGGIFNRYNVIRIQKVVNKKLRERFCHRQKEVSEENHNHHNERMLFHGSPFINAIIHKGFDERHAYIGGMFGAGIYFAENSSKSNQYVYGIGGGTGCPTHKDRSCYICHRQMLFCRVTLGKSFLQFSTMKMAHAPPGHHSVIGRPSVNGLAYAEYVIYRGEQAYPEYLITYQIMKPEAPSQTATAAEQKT
T1 sequence (Q9H2K2 873-1166): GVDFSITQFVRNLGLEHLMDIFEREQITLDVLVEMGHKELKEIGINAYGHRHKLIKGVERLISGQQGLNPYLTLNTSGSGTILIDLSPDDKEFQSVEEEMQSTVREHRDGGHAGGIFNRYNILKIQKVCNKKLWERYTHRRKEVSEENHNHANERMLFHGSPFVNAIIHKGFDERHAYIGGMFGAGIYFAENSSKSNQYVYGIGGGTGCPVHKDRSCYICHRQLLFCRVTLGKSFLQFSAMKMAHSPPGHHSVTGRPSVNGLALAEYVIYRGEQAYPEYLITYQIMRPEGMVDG

SMILES	IC50 [1]	IC50 (His-tagged Parp-1)	IC50 [2]
CC(C)(C)c1ccc(-c2cn3cccc3c(=O)[nH]2)cc1 [Compound A11, 3-(4-tert-butyl-phenyl)-2H-pyrrolo[1,2-a]pyrazin-1-one]	< 300 nM	3000 to 50000 nM	< 300 nM
Cc1ccc(-c2cn3cccc3c(=O)[nH]2)cc1 [Compound A12, 3-p-tolyl-2H-pyrrolo[1,2-a]pyrazin-1-one]	< 300 nM	300 to 3000 nM	< 300 nM
Cn1cc(-c2ccc(-c3cn4cccc4c(=O)[nH]3)cc2)cn1 [Compound A25, 3-[4-(1-methyl-1H-pyrazol-4-yl)-phenyl]-2H-pyrrolo[1,2-a]pyrazin-1-one]	< 300 nM	3000 to 50000 nM	< 300 nM
CC(C)(O)c1ccc(-c2cn3cccc3c(=O)[nH]2)cc1 [Compound A29, 3-[4-(1-hydroxy-1-methyl-ethyl)-phenyl]-2H-pyrrolo[1,2-a]pyrazin-1-one]	< 300 nM	300 to 3000 nM	< 300 nM
CC(C)(C)c1ccc(-c2cn3cc(F)cc3c(=O)[nH]2)cc1 [Compound A35, 3-(4-tert-butyl-phenyl)-7-fluoro-2H-pyrrolo[1,2-a]pyrazin-1-one]	< 300 nM	3000 to 50000 nM	< 300 nM
Cc1cc2c(=O)[nH]c(-c3ccc(C(C)(C)O)cc3)cn2n1 [Compound A46, 6-[4-(1-hydroxy-1-methyl-ethyl)phenyl]-2-methyl-5H-pyrazolo[1,5-a]pyrazin-4-one]	< 300 nM	300 to 3000 nM	< 300 nM
Cc1cc2c(=O)[nH]c(-c3ccc(C(C)(C)O)cc3)cn2c1 [Compound A56, 3-[4-(1-hydroxy-1-methyl-ethyl)-phenyl]-7-methyl-2H-pyrrolo[1,2-a]pyrazin-1-one]	< 300 nM	300 to 3000 nM	< 300 nM
CC(C)(O)c1ccc(-c2cn3cc(F)cc3c(=O)[nH]2)cc1 [Compound A59, 7-fluoro-3-[4-(1-hydroxy-1-methyl-ethyl)-phenyl]-2H-pyrrolo[1,2-a]pyrazin-1-one]	< 300 nM	300 to 3000 nM	< 300 nM
CC(C)(O)c1ccc(-c2cn3cc(Cl)cc3c(=O)[nH]2)cc1 [Compound A60, 7-chloro-3-[4-(1-hydroxy-1-methyl-ethyl)-phenyl]-2H-pyrrolo[1,2-a]pyrazin-1-one]	< 300 nM	300 to 3000 nM	< 300 nM
CCC(O)(CC)c1ccc(-c2cn3cc(F)cc3c(=O)[nH]2)cc1 [Compound A61, 3-[4-(1-ethyl-1-hydroxy-propyl)-phenyl]-7-fluoro-2H-pyrrolo[1,2-a]pyrazin-1-one]	< 300 nM	300 to 3000 nM	< 300 nM
CC(C)(F)c1ccc(-c2cn3cc(F)cc3c(=O)[nH]2)cc1 [Compound A63, 7-fluoro-3-[4-(1-fluoro-1-methyl-ethyl)-phenyl]-2H-pyrrolo[1,2-a]pyrazin-1-one]	< 300 nM	300 to 3000 nM	< 300 nM
CC(C)(OCCO)c1ccc(-c2cn3cc(F)cc3c(=O)[nH]2)cc1 [Compound A70, 7-fluoro-3-{4-[1-(2-hydroxy-ethoxy)-1-methyl-ethyl]-phenyl}-2H-pyrrolo[1,2-a]pyrazin-1-one]	< 300 nM	300 to 3000 nM	< 300 nM
COCCOC(C)(C)c1ccc(-c2cn3cc(F)cc3c(=O)[nH]2)cc1 [Compound A71, 7-fluoro-3-{4-[1-(2-methoxy-ethoxy)-1-methyl-ethyl]-phenyl}-2H-pyrrolo[1,2-a]pyrazin-1-one]	< 300 nM	3000 to 50000 nM	< 300 nM
CC(C)(N)c1ccc(-c2cn3cc(F)cc3c(=O)[nH]2)cc1 [Compound A72, 3-[4-(1-amino-1-methyl-ethyl)-phenyl]-7-fluoro-2H-pyrrolo[1,2-a]pyrazin-1-one]	< 300 nM	< 300 nM	< 300 nM
CC1(c2ccc(-c3cn4cc(F)cc4c(=O)[nH]3)cc2)CCCO1 (stereo not drawn) [Compound A73, 7-fluoro-3-[4-(2-methyl-tetrahydro-furan-2-yl)-phenyl]-2H-pyrrolo[1,2-a]pyrazin-1-one]	< 300 nM	300 to 3000 nM	< 300 nM
O=c1[nH]c(-c2ccc(C3CCNCC3)cc2)cn2cccc12 [Compound A75, 3-(4-piperidin-4-yl-phenyl)-2H-pyrrolo[1,2-a]pyrazin-1-one]	< 300 nM	3000 to 50000 nM	< 300 nM
O=c1[nH]c(-c2ccc(C3CCNC3)cc2)cn2cccc12 (stereo not drawn) [Compound A76, 3-(4-Pyrrolidin-3-yl-phenyl)-2H-pyrrolo[1,2-a]pyrazin-1-one]	< 300 nM	300 to 3000 nM	< 300 nM
CN1CCC(c2ccc(-c3cn4cccc4c(=O)[nH]3)cc2)CC1 [Compound A79, 3-[4-(1-methyl-piperidin-4-yl)-phenyl]-2H-pyrrolo[1,2-a]pyrazin-1-one]	< 300 nM	3000 to 50000 nM	< 300 nM
CN1CCC(c2ccc(-c3cn4cccc4c(=O)[nH]3)cc2)C1 (stereo not drawn) [Compound A80, 3-[4-(1-methyl-pyrrolidin-3-yl)-phenyl]-2H-pyrrolo[1,2-a]pyrazin-1-one]	< 300 nM	3000 to 50000 nM	< 300 nM
O=c1[nH]c(-c2ccc(C3(O)CCC3)cc2)cn2cccc12 [Compound A111]	< 300 nM	300 to 3000 nM	< 300 nM
